Data on six compounds can be found in patent US20090325952A1, “PYRAZOLO[3,4-B]PYRIDINE COMPOUNDS, AND THEIR USE AS PDE4 INHIBITORS” (Glaxo Group Limited, priority 2006, published 2009).

Counter-ions that a name gives are not always drawn.

The target of this experiment is T1, PDE4B (human recombinant) (Homo sapiens, UniProt Q07343).
T1 construct: made in house; host or cells: Saccharomyces cerevisiae strain GL62 (PDE-deficient yeast)
The experiment is described as follows: Inhibition of PDE4B activity (FP and/or SPA assay). The conditions noted are these: one reading or average of n readings; for IC50: generally FP assay, read-out: PDE4B pIC50 (generally in FP assay) (±about 0.5) (converted). Type of experiment: biochemical. The text has this: Human recombinant PDE4B, in particular the 2B splice variant thereof (HSPDE4B2B), is disclosed in WO 94/20079 and also M. M. McLaughlin et al., “A low Km, rolipram-sensitive, cAMP-specific phosphodiesterase from human brain: cloning and expression of cDNA, biochemical characterisation of recombinant protein, and tissue distribution of mRNA”, J. Biol. Chem., 1993, 268, 6470-6476. For example, in Example 1 of WO 94/20079, human recombinant PDE4B is described as being expressed in the PDE-deficient yeast Saccharomyces cerevisiae strain GL62, e.g. after induction by addition of 150 uM CuSO4, and 100,000×g supernatant fractions of yeast cell lysates are described for use in the harvesting of PDE4B enzyme.
The ability of compounds to inhibit catalytic activity at PDE4B or 4D (human recombinant), PDE3 (from bovine aorta), PDE5 (human recombinant) or PDE6 (from bovine retina) can optionally be determined by Scintillation Proximity Assay (SPA) in a 96-well format.
Test compounds (as a solution in DMSO, suitably about 2 microlitre (ul) volume of DMSO solution) are preincubated at ambient temperature (room temperature, e.g. 19-23° C.) in Wallac Isoplates (code 1450-514) with PDE enzyme in 50 mM Tris-HCl buffer pH 7.5, 8.3 mM MgCl2, 1.7 mM EGTA, 0.05% (w/v) bovine serum albumin for 10-30 minutes (usually 30 minutes). The enzyme concentration is adjusted so that no more than 20% hydrolysis of the substrate defined below occurs in control wells without compound, during the incubation. For the PDE3, PDE4B and PDE4D assays, [5′,8-^3H]Adenosine 3′,5′-cyclic phosphate (Amersham Pharmacia Biotech, code TRK.559; or Amersham Biosciences UK Ltd, Pollards Wood, Chalfont St Giles, Buckinghamshire HP8 4SP, UK) is added to give 0.05uCi per well and about 10 nM final concentration. For the PDE5 and PDE6 assays, [8^−3H]Guanosine 3′,5′-cyclic phosphate (Amersham Pharmacia Biotech, code TRK.392) is added to give 0.05uCi per well and about 36 nM final concentration. Plates containing assay mixture, suitably approx. 100 ul volume of assay mixture, are mixed on an orbital shaker for 5 minutes and incubated at ambient temperature for 1 hour. Phosphodiesterase SPA beads (Amersham Pharmacia Biotech, code RPNQ 0150) are added (about 1 mg per well) to terminate the assay. Plates are sealed and shaken and allowed to stand at ambient temperature for 35 minutes to 1 hour (suitably 35 minutes) to allow the beads to settle. Bound radioactive product is measured using a WALLAC TRILUX 1450 Microbeta scintillation counter. For inhibition curves, 10 concentrations (e.g. 1.5 nM-30 uM) of each compound are assayed. Curves are analysed using ActivityBase and XLfit (ID Business Solutions Limited, 2 Ocean Court, Surrey Research Park, Guildford, Surrey GU2 7QB, United Kingdom) Results are expressed as pIC50 values.
The ability of compounds to inhibit catalytic activity at PDE4B (human recombinant) or PDE4D (human recombinant) can optionally be determined by IMAP Fluorescence Polarisation (FP) assay (IMAP Explorer kit, available from Molecular Devices Corporation, Sunnydale, Calif., USA; Molecular Devices code: R8062) in 384-well format.
The IMAP FP assay is able to measure PDE activity in an homogenous, non-radioactive assay format. The FP assay uses the ability of immobilised trivalent metal cations, coated onto nanoparticles (tiny beads), to bind the phosphate group of Fl-AMP that is produced on the hydrolysis of fluorescein-labelled (Fl) cyclic adenosine mono-phosphate (Fl-cAMP) to the non-cyclic Fl-AMP form. […] Binding of Fl-AMP product to the beads (coated with the immobilised trivalent cations) slows the rotation of the bound Fl-AMP and leads to an increase in the fluorescence polarisation ratio of parallel to perpendicular light. Inhibition of the PDE reduces/inhibits this signal increase. […]

T1 sequence (Q07343 1-564 isoform Q07343-2): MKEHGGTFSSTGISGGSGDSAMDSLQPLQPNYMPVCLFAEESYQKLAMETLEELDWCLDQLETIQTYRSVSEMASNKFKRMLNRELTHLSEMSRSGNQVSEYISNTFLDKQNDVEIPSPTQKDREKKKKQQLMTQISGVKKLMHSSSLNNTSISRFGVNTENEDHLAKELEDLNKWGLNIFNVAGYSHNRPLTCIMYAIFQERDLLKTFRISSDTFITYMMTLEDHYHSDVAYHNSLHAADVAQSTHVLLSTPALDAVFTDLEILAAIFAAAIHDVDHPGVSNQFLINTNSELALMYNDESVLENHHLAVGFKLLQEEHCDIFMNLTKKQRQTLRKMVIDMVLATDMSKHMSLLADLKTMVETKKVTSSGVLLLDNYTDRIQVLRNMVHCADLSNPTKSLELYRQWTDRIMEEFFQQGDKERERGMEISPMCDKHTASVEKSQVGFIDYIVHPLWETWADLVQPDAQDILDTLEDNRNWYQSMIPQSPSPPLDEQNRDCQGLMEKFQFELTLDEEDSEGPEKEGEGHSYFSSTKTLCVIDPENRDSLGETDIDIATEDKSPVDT

Take `CCc1nc2c(cnn2CC)c(NC2CCOCC2)c1CNC(=O)c1ccc(CCCCOCCCCN(C)CCO)cc1` [Example 19, formate salt of N-{[1,6-diethyl-4-(tetrahydro-2H-pyran-4-ylamino)-1H-pyrazolo[3,4-b]pyridin-5-yl]methyl}-4-[4-({4-[(2-hydroxyethyl)(methyl)amino]butyl}oxy)butyl]benzamide]: the IC50 was approximately 0.0398 nM.

As for `CCc1nc2c(cnn2CC)c(NC2CCN(C(N)=O)CC2)c1CNC(=O)c1ccc(CCCCOCCCCN2CCOCC2)cc1` [Example 23A, 4-({1,6-diethyl-5-[({[4-(4-{[4-(4-morpholinyl)butyl]oxy}butyl)phenyl]carbonyl}amino)methyl]-1H-pyrazolo[3,4-b]pyridin-4-yl}amino)-1-piperidinecarboxamide], the IC50 is approximately 0.1 nM.

On to `CCc1nc2c(cnn2CC)c(NC2CCN(C(N)=O)CC2)c1CNC(=O)c1ccc(NC(=O)CCCCCCCN(C)CCO)cc1.O=C(O)C(F)(F)F` [Example 9, 4-({1,6-diethyl-5-[({[4-({8-[(2-hydroxyethyl)(methyl)amino]octanoyl}amino)phenyl]carbonyl}amino)methyl]-1H-pyrazolo[3,4-b]pyridin-4-yl}amino)-1-piperidinecarboxamide trifluoroacetate (salt)], for which the “PDE4B pIC50 (generally in FP assay) (±about 0.5)” value is on record as “about 10.3 (n = 1)”.

As to `CCn1ncc2c(NC3CCOCC3)c(CNC(=O)c3ccc(NC(=O)CCCCCCCN(C)CCO)cc3)cnc21` [Example 26, Formate salt of N-{[1-ethyl-4-(tetrahydro-2H-pyran-4-ylamino)-1H-pyrazolo[3,4-b]pyridin-5-yl]methyl}-4-({8-[(2-hydroxyethyl)(methyl)amino]octanoyl}amino)benzamide], the IC50 was approximately 0.251 nM.

As for `CCc1nc2c(cnn2CC)c(NC2CCOCC2)c1CNC(=O)c1ccc(NC(=O)CCCCCCCN(C)CCO)cc1` [Example 1A1, N-{[1,6-Diethyl-4-(tetrahydro-2H-pyran-4-ylamino)-1H-pyrazolo[3,4-b]pyridin-5-yl]methyl}-4-({8-[(2-hydroxyethyl)(methyl)amino]octanoyl}amino)benzamide dihydrochloride], the IC50 is approximately 0.0501 nM.

Consider `CCc1nc2c(cnn2CC)c(NC2CCOCC2)c1CNC(=O)c1ccc(NC(=O)CCCCCCCN(C)CCO)cc1` [Example 1B, N-{[1,6-diethyl-4-(tetrahydro-2H-pyran-4-ylamino)-1H-pyrazolo[3,4-b]pyridin-5-yl]methyl}-4-({8-[(2-hydroxyethyl)(methyl)amino]octanoyl}amino)benzamide], for which the IC50 was approximately 0.0631 nM.
